Patent US4467086A, “Cephalosporin antibiotic” (Glaxo Group Limited, priority 1979, dated 1984)
Structures can show the parent of a compound that is named as a salt.

Assays:
[1] = storage stability of the solid; format: physicochemical
bacteria = assay: antibacterial properties: human serum effect, inoculum effect, bactericidal action; format: cell-based
Pseudomonas organisms = assay: antibacterial activity, Pseudomonas; format: cell-based; details: organisms normally difficult to combat with β-lactam antibiotics
[2] = pharmacokinetics in human volunteers; format: in vivo
[3] = test system: gram-negative organisms, including many β-lactamase-producing gram-negative strains; details: as described in UK Patent Specification No. 2025398, cited from earlier work
Providence = assay: antibacterial activity, Providence; format: cell-based; details: organisms normally difficult to combat with β-lactam antibiotics
early clinical results = format: in vivo, human
Pseudomonas aeruginosa = assay: experimental infections in mice with Pseudomonas aeruginosa; format: in vivo
[4] = in vivo
indolepositive Proteus = assay: antibacterial activity, indole-positive Proteus; format: cell-based; details: organisms normally difficult to combat with β-lactam antibiotics
gram-negative bacteria = assay: experimental infections in mice with gram-negative bacteria; format: in vivo
Serratia = assay: antibacterial activity, Serratia; format: cell-based; details: organisms normally difficult to combat with β-lactam antibiotics

Compound | stability ([1]; crystalline form, stored for an extended period at a temperature of 50° C.) | effect of human serum on antibacterial properties (bacteria) | activity against Pseudomonas (Pseudomonas organisms) | serum levels after injection [2] | antibiotic activity spectrum [3] | activity against gram-negative organisms ([3]; including many β-lactamase-producing gram-negative strains) | activity against Providence (Providence) | clinical antibiotic properties (early clinical results) | protection against Pseudomonas aeruginosa infection (Pseudomonas aeruginosa) | protection compared with aminoglycoside treatment (Pseudomonas aeruginosa; versus an aminoglycoside such as amikacin) | distribution in the body [4] | activity against indole-positive Proteus (indolepositive Proteus) | stability ([1]; amorphous solid, especially at elevated temperatures) | treatment of experimental infections (gram-negative bacteria) | activity against Serratia (Serratia)
CC(C)(O/N=C(\C(=O)N[C@@H]1C(=O)N2C(C(=O)[O-])=C(C[n+]3ccccc3)CS[C@H]12)c1csc(N)n1)C(=O)O [(6R,7R)-7-[(Z)-2-(2-aminothiazol-4-yl)-2-(2-carboxyprop-2-oxyimino)acetamido]-3-(1-pyridiniummethyl)ceph-3-em-4-carboxylate bishydrochloride] | remarkably stable |  |  |  |  |  |  |  |  |  |  |  |  |  | 
CC(C)(O/N=C(\C(=O)N[C@@H]1C(=O)N2C(C(=O)[O-])=C(C[n+]3ccccc3)CS[C@H]12)c1csc(N)n1)C(=O)O [ceftazidime, (6R,7R)-7-[(Z)-2-(2-aminothiazol-4-yl)-2-(2-carboxyprop-2-oxyimino)acetamido]-3-(1-pyridiniummethyl)ceph-3-em-4-carboxylate] |  | not impaired | excellent activity | high and long lasting | broad spectrum antibiotic activity | unusually high activity | excellent activity | reproduces in the clinic the excellent antibiotic properties | excellent protection | comparable | well distributed | excellent activity | not particularly satisfactory | successfully treated | excellent activity
